Columns and labels:
Test in all cases: relative viability (nuclei count vs DMSO), 5 days (fraction); higher = more cells survive
EHT 1864 + Bortezomib = compound: C1COCCN1CC2=CC(=O)C(=CO2)OCCCCCSC3=C4C=CC(=CC4=NC=C3)C(F)(F)F [EHT 1864] + CC(C)C[C@H](NC(=O)[C@H](Cc1ccccc1)NC(=O)c1cnccn1)B(O)O [Bortezomib] (partner 0.002 µM)
How it was run: (§1)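 A single step with final 0.05% Triton X-100, 1% formaldehyde and 1 ug/ml Hoechst fixed the cells and stained nuclei 5 days after treatment. Lung cancer cell lines in 1536-well plates had been treated by pin tool the day after seeding with one drug alone or a fixed anchor-drug dose plus five library-drug doses (not always all listed) in √10 steps, and nuclei were counted on 4× images. Relative viability is the ratio of nuclei in treated wells to nuclei in vehicle wells, taken as the median of duplicate plates.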

EHT 1864 + Dasatinib = compound: C1COCCN1CC2=CC(=O)C(=CO2)OCCCCCSC3=C4C=CC(=CC4=NC=C3)C(F)(F)F [EHT 1864] + Cc1nc(Nc2ncc(C(=O)Nc3c(C)cccc3Cl)s2)cc(N2CCN(CCO)CC2)n1 [Dasatinib] (partner 0.075 µM)
How it was run: as §1

EHT 1864 + Luminespib = compound: C1COCCN1CC2=CC(=O)C(=CO2)OCCCCCSC3=C4C=CC(=CC4=NC=C3)C(F)(F)F [EHT 1864] + CCNC(=O)c1noc(-c2cc(C(C)C)c(O)cc2O)c1-c1ccc(CN2CCOCC2)cc1 [Luminespib] (partner 0.01 µM)
How it was run: as §1

EHT 1864 + Palbociclib = compound: C1COCCN1CC2=CC(=O)C(=CO2)OCCCCCSC3=C4C=CC(=CC4=NC=C3)C(F)(F)F [EHT 1864] + CC(=O)c1c(C)c2cnc(Nc3ccc(N4CCNCC4)cn3)nc2n(C2CCCC2)c1=O [Palbociclib] (partner 0.5 µM)
How it was run: as §1

Cell Line | relative viability (EHT 1864 + Bortezomib; first compound 0.04 µM) | relative viability (EHT 1864 + Bortezomib; first compound 0.1265 µM) | relative viability (EHT 1864 + Bortezomib; first compound 0.4 µM) | relative viability (EHT 1864 + Bortezomib; first compound 1.265 µM) | relative viability (EHT 1864 + Bortezomib; first compound 4 µM) | relative viability (EHT 1864 + Dasatinib; first compound 0.04 µM) | relative viability (EHT 1864 + Dasatinib; first compound 0.1265 µM) | relative viability (EHT 1864 + Dasatinib; first compound 0.4 µM) | relative viability (EHT 1864 + Dasatinib; first compound 1.265 µM) | relative viability (EHT 1864 + Dasatinib; first compound 4 µM) | relative viability (EHT 1864 + Luminespib; first compound 0.04 µM) | relative viability (EHT 1864 + Luminespib; first compound 0.1265 µM) | relative viability (EHT 1864 + Luminespib; first compound 0.4 µM) | relative viability (EHT 1864 + Luminespib; first compound 1.265 µM) | relative viability (EHT 1864 + Luminespib; first compound 4 µM) | relative viability (EHT 1864 + Palbociclib; first compound 0.04 µM) | relative viability (EHT 1864 + Palbociclib; first compound 0.1265 µM) | relative viability (EHT 1864 + Palbociclib; first compound 0.4 µM) | relative viability (EHT 1864 + Palbociclib; first compound 1.265 µM) | relative viability (EHT 1864 + Palbociclib; first compound 4 µM)
LXF-289 | 1.02 | 0.92 | 0.929 | 0.973 | 0.872 | 0.237 | 0.239 | 0.253 | 0.171 | 0.207 | 0.739 | 0.544 | 0.689 | 0.657 | 0.647 | 0.594 | 0.572 | 0.542 | 0.537 | 0.581
NCI-H460 | 1.01 | 1.1 | 0.993 | 0.994 | 0.905 | 0.516 | 0.405 | 0.565 | 0.532 | 0.54 | 0.0334 | 0.0284 | 0.0337 | 0.0326 | 0.0353 |  | 0.155 | 0.16 | 0.16 | 0.173
NCI-H2009 | 0.881 | 0.794 | 1.04 | 0.918 | 0.936 | 0.259 | 0.258 | 0.323 | 0.241 | 0.251 | 1 | 0.926 | 0.979 | 0.913 | 0.789 | 0.228 | 0.209 | 0.193 | 0.24 | 0.173

Source: the supplement of paper PMC10307832
